Reference: ChEMBL document CHEMBL3817840, “Discovery of CNS Penetrant CXCR2 Antagonists for the Potential Treatment of CNS Demyelinating Disorders” (ACS Med Chem Lett, 2016)
pIC50: −log10 of the molar value. Active and inactive are the calls of the source. No cut-off for these calls is given here.

Experiments:
[1] = target: T1, C-X-C chemokine receptor type 2 (Homo sapiens, UniProt P25025); experiment: Antagonist activity at human recombinant Gal4-VP16 fused-CXCR2 assessed as inhibition of CXCL1-mediated lactamase reporter gene expression after overnight incubation
T1 sequence (P25025 whole entry): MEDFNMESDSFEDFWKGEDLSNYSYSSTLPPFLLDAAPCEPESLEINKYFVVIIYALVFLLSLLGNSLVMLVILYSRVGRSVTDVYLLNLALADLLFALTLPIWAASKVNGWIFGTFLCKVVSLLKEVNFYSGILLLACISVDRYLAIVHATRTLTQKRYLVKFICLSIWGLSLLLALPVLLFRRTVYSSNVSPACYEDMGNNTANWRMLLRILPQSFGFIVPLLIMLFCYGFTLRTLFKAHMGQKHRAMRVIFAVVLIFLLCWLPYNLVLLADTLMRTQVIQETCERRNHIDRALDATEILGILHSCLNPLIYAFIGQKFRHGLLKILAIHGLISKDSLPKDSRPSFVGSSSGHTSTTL

[2] = AUC (0 to 4 hrs) in C57BL/6 mouse blood at 2 mg/kg, ip by UPLC/MS/MS analysis; assay type: ADME, organism-based; parameters: dose 2 mg/kg, time < 4 hr, route intraperitoneal; details: C57BL/6, mouse, blood
[3] = system: Brain; experiment: AUC (0 to 4 hrs) in C57BL/6 mouse brain at 2 mg/kg, ip by UPLC/MS/MS analysis; assay type: ADME, organism-based; parameters: dose 2 mg/kg, time < 4 hr, route intraperitoneal; details: in vivo
[4] = Ratio of drug level in C57BL/6 mouse brain to blood at 2 mg/kg, ip; assay type: ADME, organism-based; details: C57BL/6, mouse, brain/blood
[5] = AUC (0 to 4 hrs) in C57BL/6 mouse blood at 3.4 mg/kg, po by UPLC/MS/MS analysis; assay type: ADME, organism-based; parameters: time < 4 hr, dose 3.4 mg/kg, route oral
[6] = Ratio of drug level in C57BL/6 mouse brain to blood at 3.4 mg/kg, po; assay type: ADME, organism-based
[7] = system: Brain; experiment: AUC (0 to 4 hrs) in C57BL/6 mouse brain at 3.4 mg/kg, po by UPLC/MS/MS analysis; assay type: ADME, organism-based; parameters: dose 3.4 mg/kg, time < 4 hr, route oral; details: in vivo
[8] = AUC (0 to 4 hrs) in C57BL/6 mouse blood at 1.9 mg/kg, po by UPLC/MS/MS analysis; assay type: ADME, organism-based; parameters: dose 1.9 mg/kg, time < 4 hr, route oral
[9] = Ratio of drug level in C57BL/6 mouse brain to blood at 1.9 mg/kg, po; assay type: ADME, organism-based
[10] = system: Brain; experiment: AUC (0 to 4 hrs) in C57BL/6 mouse brain at 1.9 mg/kg, po by UPLC/MS/MS analysis; assay type: ADME, organism-based; parameters: dose 1.9 mg/kg, time < 4 hr, route oral; details: in vivo
[11] = system: Mus musculus; experiment: Induction of remyelination in corpus callosum in cuprizone-induced C57BL/6 mouse demyelination model at 100 mg/kg, po bid for 9 consecutive days by black-gold myelin staining based microscopy; assay type: functional, organism-based
[12] = Oral bioavailability in C57BL/6 mouse at 2 mg/kg; assay type: ADME, organism-based; details: in vivo
[13] = Cmax in C57BL/6 mouse at 2 mg/kg, po; assay type: ADME, organism-based; parameters: dose 2 mg/kg, route oral; details: in vivo
[14] = system: Mus musculus; experiment: Dose normalized AUC (0 to infinity) in C57BL/6 mouse at 2 mg/kg, po; assay type: ADME, organism-based; details: in vivo
[15] = Half life in C57BL/6 mouse at 1 mg/kg, iv; assay type: ADME, organism-based; details: in vivo
[16] = Clearance in C57BL/6 mouse blood at 1 mg/kg, iv; assay type: ADME, organism-based
[17] = Fraction unbound in human plasma; assay type: ADME, cell-free
[18] = Stability of the compound assessed as GSH conjugate formation; assay type: physicochemical
[19] = Volume of distribution at steady state in C57BL/6 mouse at 1 mg/kg, iv; assay type: ADME, organism-based; details: in vivo, read-out: Vdss

pIC50 [1] | AUC(0-t) at 4 h [2] [ng·h/mL] | AUC [3] [ng·h/g] | Kp [4] | Compound | also measured
9.30 | 256 | 73.9 | 0.29 | CCS(=O)(=O)c1c(Cl)ccc(NC(=O)Nc2cccc(Cl)c2Cl)c1O | –
9.20 | – | – | – | O=C(Nc1ccc(Cl)c(S(=O)(=O)N2CCNCC2)c1O)Nc1cccc(Cl)c1Cl | AUC(0-t) at 4 h [5]: 855 ng·h/mL; Kp [6]: 0.17; AUC [7]: 143 ng·h/g
8.70 | – | – | – | NS(=O)(=O)c1c(Cl)ccc(NC(=O)Nc2cccc(Cl)c2Cl)c1O | AUC(0-t) at 4 h [8]: 352 ng·h/mL; Kp [9]: 0.14; AUC [10]: 49 ng·h/g
9.10 | 290 | 37 | 0.13 | O=C(Nc1ccc(Cl)c(S(=O)(=O)C2CCOCC2)c1O)Nc1cccc(Cl)c1Cl | –
9.00 | 189 | 128 | 0.67 | CCN1CCN(S(=O)(=O)c2c(Cl)ccc(NC(=O)Nc3cccc(F)c3Cl)c2O)CC1 | –
9.10 | 176 | 83 | 0.47 | CN1CCN(S(=O)(=O)c2c(Cl)ccc(NC(=O)Nc3cccc(F)c3Cl)c2O)CC1 | –
9.50 | 103 | 28.4 | 0.28 | O=C(Nc1ccc(Cl)c(S(=O)(=O)C2CCC2)c1O)Nc1cccc(F)c1Cl | –
9.30 | 355 | 369 | 1.04 | CC(C)(C)S(=O)(=O)c1c(Cl)ccc(NC(=O)Nc2cccc(F)c2Cl)c1O | –
8.40 | 279 | 96 | 0.35 | C[C@@H]1CN(S(=O)(=O)c2c(Cl)ccc(NC(=O)Nc3cccc(F)c3Cl)c2O)C[C@H](C)O1 | –
9.30 | 735 | 335 | – | CN1CCC(S(=O)(=O)c2c(Cl)ccc(NC(=O)Nc3cccc(F)c3Cl)c2O)CC1 | Activity [11]: Active; bioavailability [12]: 41%; Cmax [13]: 157 ng/mL; AUC/dose [14]: 354 ng·h/mL/mg/kg; half-life [15]: 168 min; clearance [16]: 16.9 mL/min/kg; Fu [17]: 0.13%; Stability [18]: Stable; Vd [19]: 3.17 L/kg
9.30 | 198 | 95 | 0.48 | CC(C)S(=O)(=O)c1c(Cl)ccc(NC(=O)Nc2cccc(F)c2Cl)c1O | –
9.10 | 303 | 151 | 0.5 | CN1CCN(S(=O)(=O)c2c(Cl)ccc(NC(=O)Nc3cccc(Cl)c3Cl)c2O)CC1 | –
9.30 | 284 | 59 | 0.21 | O=C(Nc1ccc(Cl)c(S(=O)(=O)C2CCOC2)c1O)Nc1cccc(Cl)c1Cl (centres undefined) | –
8.70 | 904 | 29.8 | 0.03 | O=C(Nc1ccc(Cl)c(S(=O)(=O)C2CCNCC2)c1O)Nc1cccc(Cl)c1Cl | –
